From PubChem BioAssay (NCI)
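Step 1: Grow cells in 96-well plates. Step 2: Expose to compound for 48 hours at 5 concentrations. Step 3: Interpolate endpoints linearly; if unreached, use highest concentration. At the GI50, growth is halved. TGI denotes the concentration required for complete inhibition of growth.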

Assays:
Assay in all cases: NCI-60 cell line screen, 48 h
A498 renal = tested on: A498 renal
HT29 colon = tested on: HT29 colon
RXF 393 renal = tested on: RXF 393 renal
U251 CNS = tested on: U251 CNS
M14 melanoma = tested on: M14 melanoma
SF-539 CNS = tested on: SF-539 CNS
UO-31 renal = tested on: UO-31 renal
MOLT-4 leukemia = tested on: MOLT-4 leukemia
NCI-H23 lung = tested on: NCI-H23 lung
OVCAR-5 ovarian = tested on: OVCAR-5 ovarian

## N#CC1C=Cc2ccccc2N1C(=O)Oc1ccccc1 (centres undefined)
A498 renal
  TGI: 96.5 µM
HT29 colon
  TGI: > 100 µM
RXF 393 renal
  TGI: > 100 µM
U251 CNS
  TGI: > 100 µM
M14 melanoma
  TGI: > 100 µM
SF-539 CNS
  TGI: > 100 µM
UO-31 renal
  TGI: > 100 µM
MOLT-4 leukemia
  TGI: 93.8 µM
NCI-H23 lung
  TGI: > 100 µM
OVCAR-5 ovarian
  TGI: > 100 µM

## O=C(Nc1ccccc1C(=O)N/N=C(\c1ccccc1)c1ccccn1)c1ccc(F)cc1
A498 renal
  GI50: 1.37 µM
  TGI: 9.43 µM
HT29 colon
  GI50: 0.165 µM
  TGI: > 100 µM
RXF 393 renal
  GI50: 0.576 µM
  TGI: 9.17 µM
U251 CNS
  GI50: 0.297 µM
  TGI: > 100 µM
M14 melanoma
  GI50: 0.276 µM
  TGI: 3.89 µM
SF-539 CNS
  GI50: 0.298 µM
UO-31 renal
  GI50: 0.0828 µM
  TGI: 7.25 µM
MOLT-4 leukemia
  GI50: 0.284 µM
  TGI: > 100 µM
NCI-H23 lung
  GI50: 0.595 µM
  TGI: > 100 µM
OVCAR-5 ovarian
  GI50: 0.671 µM
  TGI: > 100 µM

## COC(=O)/C(=N/NC(N)=O)C(C(=O)OC)C(=O)C(=O)Nc1ccc(Cl)cc1 (centres undefined)
A498 renal
  TGI: > 100 µM
HT29 colon
  TGI: > 100 µM
RXF 393 renal
  TGI: > 100 µM
U251 CNS
  TGI: > 100 µM
M14 melanoma
  TGI: > 100 µM
SF-539 CNS
  TGI: > 100 µM
UO-31 renal
  TGI: > 100 µM
MOLT-4 leukemia
  TGI: > 100 µM
NCI-H23 lung
  TGI: > 100 µM
OVCAR-5 ovarian
  TGI: > 100 µM

## COc1ccc(C(O)CC(O)(C(F)(F)F)C(F)(F)F)cc1 (centres undefined)
A498 renal
  TGI: 64.1 µM
HT29 colon
  TGI: > 100 µM
RXF 393 renal
  TGI: 62 µM
U251 CNS
  TGI: > 100 µM
M14 melanoma
  TGI: > 100 µM
SF-539 CNS
  TGI: 55.3 µM
UO-31 renal
  TGI: > 100 µM
MOLT-4 leukemia
  TGI: > 100 µM
NCI-H23 lung
  TGI: 77.5 µM
OVCAR-5 ovarian
  TGI: 83.9 µM

## O=S(=O)(c1ccc(O)c(C=Nc2ccc(Cl)cc2)c1)c1ccc(O)c(C=Nc2ccc(Cl)cc2)c1
A498 renal
  TGI: > 100 µM
HT29 colon
  TGI: > 100 µM
RXF 393 renal
  TGI: > 100 µM
U251 CNS
  TGI: > 100 µM
M14 melanoma
  TGI: > 100 µM
SF-539 CNS
  TGI: > 100 µM
UO-31 renal
  TGI: > 100 µM
MOLT-4 leukemia
  TGI: > 100 µM
NCI-H23 lung
  TGI: > 100 µM
OVCAR-5 ovarian
  TGI: > 100 µM

## CC1(C)OC2C(COS(N)(=O)=O)SC(n3cnc4cncnc43)C2O1 (centres undefined)
A498 renal
  GI50: > 100 µM
  TGI: > 100 µM
HT29 colon
  GI50: > 100 µM
  TGI: > 100 µM
RXF 393 renal
  GI50: > 100 µM
  TGI: > 100 µM
U251 CNS
  GI50: > 100 µM
  TGI: > 100 µM
M14 melanoma
  GI50: > 100 µM
  TGI: > 100 µM
SF-539 CNS
  GI50: > 100 µM
  TGI: > 100 µM
UO-31 renal
  GI50: > 100 µM
  TGI: > 100 µM
MOLT-4 leukemia
  GI50: > 100 µM
  TGI: > 100 µM
NCI-H23 lung
  GI50: > 100 µM
  TGI: > 100 µM
OVCAR-5 ovarian
  GI50: > 100 µM
  TGI: > 100 µM
